pIC50: −log10 of the molar value.
What was measured:
[1] = target: T1, human β-Secretase (sBACE-Fc) (Homo sapiens (Human), UniProt P56817); experiment: Diluted TR-FRET assay; format: biochemical; conditions: diluted TR-FRET assay: 50 times less enzyme, 6.5 h reaction time at r.t.; read-out: IC50 in TR-FRET assay (IC50 from the diluted FRET assay)
Procedure: (§1) The cDNA for the soluble part of the human β-Secretase (AA 1-AA 460) was cloned using the ASP2-Fc10-1-IRES-GFP-neoK mammalian expression vector. The gene was fused to the Fc domain of IgG1 (affinity tag) and stably cloned into HEK 293 cells.
(§2) The enzyme (truncated form) was diluted to 6 μg/mL (stock 1.3 mg/mL) and the TruPoint BACE1 Substrate to 200 nM (stock 120 μM) in reaction buffer (NaAcetate, chaps, triton x-100, EDTA pH4.5). Enzyme and compound in dimethylsulphoxide (final DMSO concentration 5%) was mixed and pre-incubated for 10 minutes at RT. Substrate was then added and the reaction was incubated for 15 minutes at RT. The reaction was stopped with the addition of 0.35 vol Stop solution (NaAcetate, pH 9). The fluorescence of the product was measured on a Victor II plate reader with excitation wavelengths of 340-485 nm and emission wavelengths of 590-615 nm. The final concentration of the enzyme was 2.7 μg/ml; the final concentration of substrate was 100 nM (Km of ˜250 nM). The dimethylsulphoxide control, instead of test compound, defined the 100% activity level and 0% activity was defined by wells lacking enzyme (replaced with reaction buffer) or by a saturating dose of a known inhibitor, 2-amino-6-[3-β-methoxyphenyl)phenyl]-3,6-dimethyl-5H-pyrimidin-4-one.
Compounds with a high affinity were further tested in a diluted TR-FRET assay, conditions as described above for the TR-FRET assay, but with 50 times less enzyme and a 6.5 h long reaction time at r.t. in the dark.

[2] = test system: sAPPβ release in SH-SY5Y cells; experiment: sAPPβ release assay; format: cell-based; conditions: 17 h incubation
Procedure: SH-SY5Y cells were cultured in DMEM/F-12 with Glutamax, 10% FCS and 1% non-essential amino acids and cryopreserved and stored at −140° C. at a concentration of 7.5−9.5×10^6 cells per vial. […] The cell plates were then incubated for 7-24 h at 37° C., 5% CO2. The cell medium was removed, followed by addition of 30 μL compound diluted in DMEM/F-12 with Glutamax, 10% FCS, 1% non-essential amino acids and 1% PeSt to a final conc. of 1% DMSO. The compounds were incubated with the cells for 17 h (overnight) at 37° C., 5% CO2. Meso Scale Discovery (MSD) plates were used for the detection of sAPPβ release. MSD sAPPβ plates were blocked in 1% BSA in Tris wash buffer (40 μL/well) for 1 h on shake at r.t. and washed 1 time in Tris wash buffer (40 μL/well). 20 μL of medium was transferred to the pre-blocked and washed MSD sAPPβ microplates, and the cell plates were further used in an ATP assay to measure cytotoxicity. The MSD plates were incubated with shaking at r.t. for 2 h and the media discarded. 10 μL detection antibody was added (1 nM) per well followed by incubation with shaking at r.t. for 2 h and then discarded. 40 μL Read Buffer was added per well and the plates were read in a SECTOR Imager.

[3] = target: T1, human β-Secretase (sBACE-Fc); experiment: TR-FRET assay; format: biochemical; conditions: standard TR-FRET assay, 15 minutes reaction at RT
Procedure: The β-secretase enzyme used in the TR-FRET is prepared as follows:
as §1, §2

T1 sequence (P56817 22-460): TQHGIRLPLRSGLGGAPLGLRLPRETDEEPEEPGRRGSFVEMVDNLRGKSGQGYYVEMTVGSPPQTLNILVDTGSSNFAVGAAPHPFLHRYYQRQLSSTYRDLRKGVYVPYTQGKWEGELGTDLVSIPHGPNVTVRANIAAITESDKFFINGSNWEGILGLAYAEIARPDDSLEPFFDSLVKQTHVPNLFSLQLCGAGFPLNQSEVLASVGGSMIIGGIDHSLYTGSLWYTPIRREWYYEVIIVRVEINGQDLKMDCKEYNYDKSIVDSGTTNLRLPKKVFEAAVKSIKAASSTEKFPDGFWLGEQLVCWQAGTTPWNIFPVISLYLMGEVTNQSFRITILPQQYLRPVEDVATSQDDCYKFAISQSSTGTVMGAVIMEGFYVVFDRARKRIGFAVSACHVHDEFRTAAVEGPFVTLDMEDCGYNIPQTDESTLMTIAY

pIC50 [1] | pIC50 [2] | pIC50 [3] | pIC50 ([2]; Homo sapiens) | Structure (SMILES)
8.43 | 9.05 |  |  | CO[C@H]1CC[C@]2(CC1)Cc1ccc(OCC3CC3)cc1[C@@]21N=C(C)C(N)=N1 (single isomer, unassigned; isomer 1) [4, isomer 1]
 | 8.89 |  |  | CO[C@H]1CC[C@]2(CC1)Cc1ccc(OCC3CCC3)cc1[C@@]21N=C(C)C(N)=N1 (single isomer, unassigned; isomer 1) [7, isomer 1]
 |  | < 5.30 |  | CO[C@H]1CC[C@]2(CC1)Cc1ccc(OCC3CC3)cc1[C@]21N=C(C)C(N)=N1 (single isomer, unassigned; isomer 2) [4, isomer 2]
7.74 |  |  | 8.55 | CO[C@H]1CC[C@]2(CC1)Cc1ccc(OCC3(C)CC3)cc1C21N=C(C)C(N)=N1 (stereo partly drawn) [Example 1, (1r,4r)-4-Methoxy-5″-methyl-6′-[(1-methylcyclopropyl)methoxy]-3′H-dispiro[cyclohexane-1,2′-indene-1′,2″-imidazol]-4″-amine]
 |  | 7.30 | 8.08 | CO[C@H]1CC[C@]2(CC1)Cc1ccc(OCC3CC(F)(F)C3)cc1C21N=C(C)C(N)=N1 (stereo partly drawn) [Example 2, (1r,4r)-6′-[(3,3-Difluorocyclobutyl)methoxy]-4-methoxy-5″-methyl-3′H-dispiro[cyclohexane-1,2′-indene-1′,2″-imidazol]-4″-amine]
8.13 |  |  | 8.80 | CO[C@H]1CC[C@]2(CC1)Cc1ccc(OCC3CC3)cc1C21N=C(C)C(N)=N1 (stereo partly drawn) [Example 3, (1r,4r)-6′-(Cyclopropylmethoxy)-4-methoxy-5″-methyl-3′H-dispiro[cyclohexane-1,2′-indene-1′,2″-imidazol]-4″-amine]
7.89 |  |  | 8.64 | CO[C@H]1CC[C@]2(CC1)Cc1ccc(OCC3CC3(F)F)cc1C21N=C(C)C(N)=N1 (stereo partly drawn) [Example 5, (1r,4r)-6′-[(2,2-Difluorocyclopropyl)methoxy]-4-methoxy-5″-methyl-3′H-dispiro[cyclohexane-1,2′-indene-1′,2″-imidazol]-4″-amine]
 |  |  | 8.82 | CO[C@H]1CC[C@]2(CC1)Cc1ccc(OCC3CCC3)cc1C21N=C(C)C(N)=N1 (stereo partly drawn) [Example 6, (1r,4r)-6′-(Cyclobutylmethoxy)-4-methoxy-5″-methyl-3′H-dispiro[cyclohexane-1,2′-indene-1′,2″-imidazol]-4″-amine]
8.43 |  |  | 9.10 | CO[C@H]1CC[C@]2(CC1)Cc1ccc(OCCC3CC3)cc1C21N=C(C)C(N)=N1 (stereo partly drawn) [Example 8, (1r,4r)-6′-(2-Cyclopropylethoxy)-4-methoxy-5″-methyl-3′H-dispiro[cyclohexane-1,2′-indene-1′,2″-imidazol]-4″-amine]

Reference: patent US9000185B2, “Cycloalkyl ether compounds and their use as BACE inhibitors” (AstraZeneca AB, priority 2012, dated 2015)
